Assay results taken from patent US9499495B2, “Quinazolines and azaquinazolines as dual inhibitors of RAS/RAF/MEK/ERK and PI3K/AKT/PTEN/mTOR pathways” (Asana Biosciences, LLC, priority 2013, dated 2016).

Assays:
B-RAFV600E = target: T1, B-RAFV600E (Homo sapiens, UniProt P15056, V600E); assay: B-RAFV600E radiometric assay; format: biochemical; conditions: read-out: Kinase assay B-Raf
T1 construct: purchased Millipore, USA 14-557
Outline: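 B-RAFV600E was preincubated 45 min at rt with compound in 1% DMSO. MEK-K97M (0.5 μg), 5 μM final cold ATP and [γ-32P]ATP were then added for 2 h at rt. Phosphorylated MEK was captured on P81 paper and scintillation-counted; IC50 came from a sigmoidal dose-response fit.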

RKO cells = assay: XTT assay for cell viability, RKO cells; format: cell-based; conditions: Homo sapiens, 72 h
Outline: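 RKO and A375 cells seeded at 1000-2000/well overnight, then exposed to compound for 72 h at 37° C., 5% CO2. XTT (1 mg/ml)/PMS (25 μM) added for 2-3 h; absorbance at 450 nm. Growth relative to DMSO control (100%); GI50 from sigmoidal dose-response fit.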

mTOR kinase = target: T2, mTOR kinase (Homo sapiens, UniProt P42345); assay: mTOR kinase TR-FRET assay; format: biochemical
T2 construct: purchased Millipore, US
T2 sequence (P42345 1362-2549 limits assumed): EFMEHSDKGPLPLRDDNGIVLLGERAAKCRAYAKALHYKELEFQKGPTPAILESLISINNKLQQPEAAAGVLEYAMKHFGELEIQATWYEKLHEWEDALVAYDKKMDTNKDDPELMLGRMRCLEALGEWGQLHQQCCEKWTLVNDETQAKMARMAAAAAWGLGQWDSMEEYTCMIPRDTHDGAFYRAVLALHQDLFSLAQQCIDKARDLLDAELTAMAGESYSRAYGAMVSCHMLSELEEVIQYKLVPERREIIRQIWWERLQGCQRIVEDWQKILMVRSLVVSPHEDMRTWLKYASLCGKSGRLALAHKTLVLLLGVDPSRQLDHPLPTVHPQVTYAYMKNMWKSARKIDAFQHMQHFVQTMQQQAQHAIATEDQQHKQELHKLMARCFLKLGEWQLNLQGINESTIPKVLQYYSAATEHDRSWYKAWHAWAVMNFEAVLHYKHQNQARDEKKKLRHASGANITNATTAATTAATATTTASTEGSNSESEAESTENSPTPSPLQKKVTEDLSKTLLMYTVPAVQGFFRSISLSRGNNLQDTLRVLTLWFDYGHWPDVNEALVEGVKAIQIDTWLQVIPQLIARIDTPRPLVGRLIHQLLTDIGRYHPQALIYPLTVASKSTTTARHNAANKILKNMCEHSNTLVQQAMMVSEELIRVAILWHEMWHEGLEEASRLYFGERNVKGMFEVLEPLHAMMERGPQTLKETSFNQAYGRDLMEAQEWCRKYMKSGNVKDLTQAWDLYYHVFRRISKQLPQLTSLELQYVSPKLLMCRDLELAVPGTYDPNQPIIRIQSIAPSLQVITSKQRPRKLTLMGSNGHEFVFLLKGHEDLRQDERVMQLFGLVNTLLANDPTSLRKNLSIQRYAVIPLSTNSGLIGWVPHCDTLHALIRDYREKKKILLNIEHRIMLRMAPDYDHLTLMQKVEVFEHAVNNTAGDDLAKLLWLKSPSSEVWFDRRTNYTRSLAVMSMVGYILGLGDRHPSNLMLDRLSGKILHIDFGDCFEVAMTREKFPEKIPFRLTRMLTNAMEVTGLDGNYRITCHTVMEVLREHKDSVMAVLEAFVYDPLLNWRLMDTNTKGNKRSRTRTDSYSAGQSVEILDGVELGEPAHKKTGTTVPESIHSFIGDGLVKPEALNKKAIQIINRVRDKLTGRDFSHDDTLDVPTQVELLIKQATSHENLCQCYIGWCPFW
Outline: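 TR-FRET with ULight-p70 S6K (Thr 389) peptide (50 nM) and 20 μM ATP in 50 mM HEPES pH 7.5, 1 mM EGTA, 3 mM MnCl2; compound pre-incubated with enzyme before substrate addition, reaction at rt, EDTA-stopped. Eu anti-phospho antibody read 665/615 nm; IC50 from sigmoidal dose-response fit.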

T1 sequence (P15056 416-766 V600E limits assumed): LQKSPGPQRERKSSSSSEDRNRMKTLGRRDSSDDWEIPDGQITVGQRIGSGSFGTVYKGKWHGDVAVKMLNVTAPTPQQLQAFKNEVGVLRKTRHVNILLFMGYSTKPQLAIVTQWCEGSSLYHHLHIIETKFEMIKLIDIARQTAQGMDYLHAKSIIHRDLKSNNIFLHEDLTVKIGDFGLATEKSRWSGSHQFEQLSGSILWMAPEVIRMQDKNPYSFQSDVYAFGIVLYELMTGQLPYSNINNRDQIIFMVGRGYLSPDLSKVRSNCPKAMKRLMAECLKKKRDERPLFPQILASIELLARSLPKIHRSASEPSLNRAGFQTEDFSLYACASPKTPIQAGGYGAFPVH

| IC50 (B-RAFV600E) | IC50 (mTOR kinase) | SMILES | IC50 (RKO cells) |
| --- | --- | --- | --- |
| 1 to 100 nM | 1 to 100 nM | CNc1ccc(-c2nc(N3CCOCC3)c3nc(-c4cccc(NS(=O)(=O)CCCF)c4F)ccc3n2)cn1 [Example 113, 3-fluoro-N-(2-fluoro-3-(2-(6-(methylamino)pyridin-3-yl)-4-morpholinopyrido[3,2-d]pyrimidin-6-yl)phenyl)propane-1-sulfonamide] | 100 to 1000 nM |
| 1 to 100 nM | 1 to 100 nM | COc1cc(-c2cccc(NS(=O)(=O)CCCF)c2F)cc2c(N3CCOC[C@H]3C)nc(-c3cnc(N)c(F)c3)nc12 [Example 134, (R)-N-(3-(2-(6-amino-5-fluoropyridin-3-yl)-8-methoxy-4-(3-methylmorpholino)quinazolin-6-yl)-2-fluorophenyl)-3-fluoropropane-1-sulfonamide] | 100 to 1000 nM |
| 1 to 100 nM | 1 to 100 nM | COc1cc(-c2cccc(NS(=O)(=O)CCCF)c2F)cc2c(N3CCOC[C@H]3C)nc(-c3cnc(N)cc3F)nc12 [Example 135, (R)-N-(3-(2-(6-amino-4-fluoropyridin-3-yl)-8-methoxy-4-(3-methylmorpholino)quinazolin-6-yl)-2-fluorophenyl)-3-fluoropropane-1-sulfonamide] | 100 to 1000 nM |
